Results published in ChEMBL document CHEMBL1201861, “Genomics of Drug Sensitity in Cancer screening data, Wellcome Trust Sanger Institute”.

Columns and labels:
Assay in all cases: cells
[1] = tested on: A-431; format: functional, cell-based, Homo sapiens; conditions: Homo sapiens, A-431;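 note: growth inhibition of A-431 cells, determined with a cell viability read-out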
Description: SANGER: Inhibition of human A431 cell growth in a cell viability assay.

[2] = tested on: SF-295; format: functional, cell-based, Homo sapiens; conditions: Homo sapiens, SF-295; read-out: IC50;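 note: growth inhibition of SF-295 cells, read out with a cell viability assay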
Description: SANGER: Inhibition of human SF295 cell growth in a cell viability assay.

[3] = tested on: OE19; format: functional, cell-based, Homo sapiens; conditions: Homo sapiens, OE19;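 note: growth inhibition of OE19 cells, measured through a cell viability read-out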
Description: SANGER: Inhibition of human OE19 cell growth in a cell viability assay.

[4] = tested on: LU-99A; format: functional, cell-based, Homo sapiens; conditions: Homo sapiens, LU-99A;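 note: growth inhibition of LU-99A cells, read out with a cell viability assay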
Description: SANGER: Inhibition of human LU-99A cell growth in a cell viability assay.

[5] = tested on: NCI-H2052; format: functional, cell-based, Homo sapiens; conditions: Homo sapiens, NCI-H2052;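 note: growth inhibition of NCI-H2052 cells, read out with a cell viability assay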
Description: SANGER: Inhibition of human NCI-H2052 cell growth in a cell viability assay.

[6] = tested on: ES1; format: functional, cell-based, Homo sapiens; conditions: Homo sapiens, ES1;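 note: growth inhibition of ES1 cells, read out with a cell viability assay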
Description: SANGER: Inhibition of human ES1 cell growth in a cell viability assay.

[7] = tested on: HSC-3; format: functional, cell-based, Homo sapiens; conditions: Homo sapiens, HSC-3
Description: SANGER: Inhibition of human HSC-3 cell growth in a cell viability assay.

[8] = tested on: A673; format: functional, cell-based, Homo sapiens; conditions: Homo sapiens, A673;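 note: growth inhibition of human A673 cells, read out through a cell viability assay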
Description: SANGER: Inhibition of human A673 cell growth in a cell viability assay.

[9] = tested on: Panc1005; format: functional, cell-based, Homo sapiens; conditions: Homo sapiens, Panc1005;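 note: growth inhibition of human PANC-10-05 cells, measured by a cell viability assay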
Description: SANGER: Inhibition of human PANC-10-05 cell growth in a cell viability assay.

[10] = tested on: ME-180; format: functional, cell-based; conditions: Homo sapiens;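 note: cell viability assay measuring growth inhibition of ME-180 cells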
Description: SANGER: Inhibition of human ME-180 cell growth in a cell viability assay.

[11] = tested on: GCT; format: functional, cell-based, Homo sapiens; conditions: Homo sapiens, GCT;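 note: GCT cell line proliferation inhibition, read out with a cell viability assay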
Description: SANGER: Inhibition of human GCT cell growth in a cell viability assay.

[12] = tested on: MEG-01; format: functional, cell-based; conditions: Homo sapiens;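 note: growth inhibition of MEG-01 cells, read out by a cell viability assay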
Description: SANGER: Inhibition of human MEG-01 cell growth in a cell viability assay.

[13] = tested on: NCI-H226; format: functional, cell-based, Homo sapiens; conditions: Homo sapiens, NCI-H226;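 note: cell viability read-out used to gauge growth inhibition of the cells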
Description: SANGER: Inhibition of human NCI-H226 cell growth in a cell viability assay.

[14] = tested on: RERF-LC-MS; format: functional, cell-based, Homo sapiens; conditions: Homo sapiens, RERF-LC-MS;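 note: growth inhibition of human RERF-LC-MS cells, read out by a cell viability assay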
Description: SANGER: Inhibition of human RERF-LC-MS cell growth in a cell viability assay.

[15] = tested on: MOLT-16; format: functional, cell-based; conditions: Homo sapiens;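 note: growth inhibition of human MOLT-16 cells, read out with a cell viability assay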
Description: SANGER: Inhibition of human MOLT-16 cell growth in a cell viability assay.

[16] = tested on: UACC-893; format: functional, cell-based, Homo sapiens; conditions: Homo sapiens, UACC-893
Description: SANGER: Inhibition of human UACC-893 cell growth in a cell viability assay.

[17] = tested on: U-87 MG; format: functional, cell-based, U-87MG ATCC; conditions: Homo sapiens;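 note: growth inhibition of the cells measured with a viability assay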
Description: SANGER: Inhibition of human U-87-MG cell growth in a cell viability assay.

[18] = tested on: SK-MEL3; format: functional, cell-based, Homo sapiens, SK-MEL-3; conditions: Homo sapiens, SK-MEL3;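 note: growth inhibition of human SK-MEL-3 cells, read out with a cell viability assay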
Description: SANGER: Inhibition of human SK-MEL-3 cell growth in a cell viability assay.

[19] = tested on: SW-620; format: functional, cell-based, Homo sapiens; conditions: Homo sapiens, SW-620;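 note: growth inhibition of human SW-620 cells, measured by a cell viability assay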
Description: SANGER: Inhibition of human SW620 cell growth in a cell viability assay.

[20] = tested on: SW948; format: functional, cell-based, Homo sapiens; conditions: Homo sapiens, SW948;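 note: growth inhibition of SW948 cells, read out with a cell viability assay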
Description: SANGER: Inhibition of human SW948 cell growth in a cell viability assay.

[21] = tested on: CAMA-1; format: functional, cell-based, Homo sapiens; conditions: Homo sapiens, CAMA-1;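 note: growth inhibition of CAMA-1 cells, read out with a cell viability assay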
Description: SANGER: Inhibition of human CAMA-1 cell growth in a cell viability assay.

[22] = tested on: OAW-28; format: functional, cell-based, Homo sapiens; conditions: Homo sapiens, OAW-28;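 note: growth inhibition of OAW-28 cells, read out with a cell viability assay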
Description: SANGER: Inhibition of human OAW-28 cell growth in a cell viability assay.

[23] = tested on: NCI-H520; format: functional, cell-based, Homo sapiens; conditions: Homo sapiens, NCI-H520;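 note: growth inhibition of NCI-H520 cells, measured by a cell viability assay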
Description: SANGER: Inhibition of human NCI-H520 cell growth in a cell viability assay.

[24] = tested on: NCI-H1770; format: functional, cell-based; conditions: Homo sapiens;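 note: growth inhibition of NCI-H1770 cells determined with a viability readout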
Description: SANGER: Inhibition of human NCI-H1770 cell growth in a cell viability assay.

[25] = tested on: DK-MG; format: functional, cell-based, Homo sapiens; conditions: Homo sapiens, DK-MG;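 note: growth inhibition of DK-MG cells, read out with a cell viability assay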
Description: SANGER: Inhibition of human DK-MG cell growth in a cell viability assay.

[26] = tested on: D-392MG; format: functional, cell-based, Homo sapiens; conditions: Homo sapiens, D-392MG
[27] = tested on: SNB-75; format: functional, cell-based, Homo sapiens; conditions: Homo sapiens, SNB-75;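 note: cell viability assay measuring growth inhibition of human SNB-75 cells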
Description: SANGER: Inhibition of human SNB75 cell growth in a cell viability assay.

[28] = tested on: LAN-6; format: functional, cell-based, Homo sapiens; conditions: Homo sapiens, LAN-6;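 note: growth inhibition of LAN-6 cells, determined with a cell viability assay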
Description: SANGER: Inhibition of human LAN-6 cell growth in a cell viability assay.

[29] = tested on: HT1197; format: functional, cell-based, Homo sapiens, HT-1197; conditions: Homo sapiens, HT1197
Description: SANGER: Inhibition of human HT-1197 cell growth in a cell viability assay.

[30] = tested on: U-118-MG; format: functional, cell-based, Homo sapiens; conditions: Homo sapiens, U-118-MG
Description: SANGER: Inhibition of human U-118-MG cell growth in a cell viability assay.

[31] = tested on: SK-N-FI; format: functional, cell-based, Homo sapiens; conditions: Homo sapiens, SK-N-FI;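 note: cell viability assay measuring growth inhibition of human SK-N-FI cells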
Description: SANGER: Inhibition of human SK-N-FI cell growth in a cell viability assay.

[32] = tested on: 639-V; format: functional, cell-based, Homo sapiens; conditions: Homo sapiens, 639-V;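 note: growth inhibition of 639-V cells, read out with a cell viability assay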
Description: SANGER: Inhibition of human 639-V cell growth in a cell viability assay.

[33] = tested on: A388; format: functional, cell-based, Homo sapiens; conditions: Homo sapiens, A388;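 note: growth inhibition of human A388 cells, read out with a cell viability assay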
Description: SANGER: Inhibition of human A388 cell growth in a cell viability assay.

[34] = tested on: BPH-1; format: functional, cell-based, Homo sapiens; conditions: Homo sapiens, BPH-1;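 note: cell viability assay measuring growth inhibition of human BPH-1 cells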
Description: SANGER: Inhibition of human BPH-1 cell growth in a cell viability assay.

[35] = tested on: NCI-H526; format: functional, cell-based; conditions: Homo sapiens;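 note: growth inhibition of the human NCI-H526 cell line, measured by a cell viability assay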
Description: SANGER: Inhibition of human NCI-H526 cell growth in a cell viability assay.

[36] = tested on: NCI-H1838; format: functional, cell-based, Homo sapiens; conditions: Homo sapiens, NCI-H1838;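 note: growth inhibition of NCI-H1838 cells, determined with a cell viability readout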
Description: SANGER: Inhibition of human NCI-H1838 cell growth in a cell viability assay.

[37] = tested on: L-428; format: functional, cell-based; conditions: Homo sapiens
Description: SANGER: Inhibition of human L-428 cell growth in a cell viability assay.

[38] = tested on: LB1047-RCC; format: functional, cell-based, Homo sapiens; conditions: Homo sapiens, LB1047-RCC;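 note: inhibition of cell growth, determined with a cell viability assay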
Description: SANGER: Inhibition of human LB1047-RCC cell growth in a cell viability assay.

[39] = tested on: HN; format: functional, cell-based, Homo sapiens; conditions: Homo sapiens, HN
Description: SANGER: Inhibition of human HN cell growth in a cell viability assay.

[40] = tested on: EC-GI-10; format: functional, cell-based, Homo sapiens; conditions: Homo sapiens, EC-GI-10
Description: SANGER: Inhibition of human EC-GI-10 cell growth in a cell viability assay.

[41] = tested on: C8166; format: functional, cell-based; conditions: Homo sapiens;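 note: growth inhibition of human C8166 cells measured by a cell viability assay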
Description: SANGER: Inhibition of human C8166 cell growth in a cell viability assay.

[42] = tested on: EKVX; format: functional, cell-based, Homo sapiens; conditions: Homo sapiens, EKVX;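 note: growth inhibition of human EKVX cells, read out with a cell viability assay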
Description: SANGER: Inhibition of human EKVX cell growth in a cell viability assay.

[43] = tested on: KM12; format: functional, cell-based, Homo sapiens; conditions: Homo sapiens, KM12;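 note: KM12 cell growth inhibition, read out with a cell viability assay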
Description: SANGER: Inhibition of human KM12 cell growth in a cell viability assay.

[44] = tested on: KYSE-520 cell line; format: functional, cell-based, Homo sapiens; conditions: Homo sapiens, KYSE-520;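 note: growth inhibition of human KYSE-520 cells, read out with a viability assay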
Description: SANGER: Inhibition of human KYSE-520 cell growth in a cell viability assay.

[45] = tested on: HuTu80; format: functional, cell-based, Homo sapiens, HUTU-80; conditions: Homo sapiens, HuTu80;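 note: growth inhibition of HuTu80 human cells, determined with a cell viability readout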
Description: SANGER: Inhibition of human HUTU-80 cell growth in a cell viability assay.

[46] = tested on: NCI-H82; format: functional, cell-based; conditions: Homo sapiens;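 note: growth inhibition of NCI-H82 cells, measured with a cell viability readout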
Description: SANGER: Inhibition of human NCI-H82 cell growth in a cell viability assay.

[47] = tested on: HT-3; format: functional, cell-based, Homo sapiens; conditions: Homo sapiens, HT-3;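 note: growth inhibition measured with a cell viability readout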
Description: SANGER: Inhibition of human HT-3 cell growth in a cell viability assay.

[48] = tested on: GCIY; format: functional, cell-based, Homo sapiens; conditions: Homo sapiens, GCIY;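 note: growth inhibition of the human GCIY cell line, read out by a cell viability assay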
Description: SANGER: Inhibition of human GCIY cell growth in a cell viability assay.

[49] = tested on: HCC1187; format: functional, cell-based, Homo sapiens; conditions: Homo sapiens, HCC1187;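 note: growth inhibition of HCC1187 cells, read out with a cell viability assay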
Description: SANGER: Inhibition of human HCC1187 cell growth in a cell viability assay.

[50] = tested on: KYSE-180; format: functional, cell-based, Homo sapiens; conditions: Homo sapiens, KYSE-180;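 note: growth inhibition of KYSE-180 cells, read out with a cell viability assay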
Description: SANGER: Inhibition of human KYSE-180 cell growth in a cell viability assay.

[51] = tested on: T84; format: functional, cell-based, Homo sapiens; conditions: Homo sapiens, T84;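 note: growth inhibition measured with a cell viability readout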
Description: SANGER: Inhibition of human T84 cell growth in a cell viability assay.

`C[C@]1(O)C[C@@H](c2nc(-c3ccc4ccc(-c5ccccc5)nc4c3)c3c(N)nccn32)C1` [LINSITINIB] was tested, and the IC50 [1] was over 2.56 µM, the IC50 [2] was over 2.56 µM and the IC50 [3] was over 2.56 µM. The IC50 [4] was over 2.56 µM, the IC50 [5] was over 2.56 µM and the IC50 [6] was 0.107 µM. The IC50 [7] was over 2.56 µM, the IC50 [8] was over 2.56 µM and the IC50 [9] was over 2.56 µM. The IC50 [10] was over 2.56 µM, the IC50 [11] was over 2.56 µM and the IC50 [12] was over 2.56 µM. The IC50 [13] was over 2.56 µM, the IC50 [14] was over 2.56 µM and the IC50 [15] was over 2.56 µM. The IC50 [16] was over 2.56 µM, the IC50 [17] was over 2.56 µM and the IC50 [18] was 1.49 µM. The IC50 [19] was over 2.56 µM, the IC50 [20] was over 2.56 µM and the IC50 [21] was over 2.56 µM. The IC50 [22] was over 2.56 µM, the IC50 [23] was over 2.56 µM and the IC50 [24] was 1.51 µM. It also gave an IC50 [25] of over 2.56 µM, an IC50 [26] of over 2.56 µM and an IC50 [27] of over 2.56 µM. The IC50 [28] was 0.263 µM, the IC50 [29] was over 2.56 µM and the IC50 [30] was over 2.56 µM. It also gave an IC50 [31] of over 2.56 µM, an IC50 [32] of over 2.56 µM and an IC50 [33] of over 2.56 µM. The IC50 [34] was over 2.56 µM, the IC50 [35] was over 2.56 µM and the IC50 [36] was over 2.56 µM. For the same compound, the IC50 [37] was over 2.56 µM, the IC50 [38] was over 2.56 µM and the IC50 [39] was over 2.56 µM. It also gave an IC50 [40] of over 2.56 µM, an IC50 [41] of over 2.56 µM and an IC50 [42] of 1.35 µM. For the same compound, the IC50 [43] was over 2.56 µM, the IC50 [44] was over 2.56 µM and the IC50 [45] was over 2.56 µM. The IC50 [46] was over 2.56 µM, the IC50 [47] was over 2.56 µM and the IC50 [48] was over 2.56 µM. For the same compound, the IC50 [49] was over 2.56 µM, the IC50 [50] was over 2.56 µM and the IC50 [51] was 1.21 µM.

With `C=CCc1cccc(/C=N/NC(=O)CN2CCN(Cc3ccccc3)CC2)c1O` [PAC-1] the IC50 [1] was over 2.56 µM, the IC50 [2] was over 2.56 µM and the IC50 [3] was over 2.56 µM. The IC50 [4] was over 2.56 µM, the IC50 [5] was over 2.56 µM and the IC50 [6] was over 2.56 µM. For the same compound, the IC50 [7] was over 2.56 µM, the IC50 [8] was over 2.56 µM and the IC50 [9] was over 2.56 µM. For the same compound, the IC50 [10] was over 2.56 µM, the IC50 [11] was over 2.56 µM and the IC50 [12] was over 2.56 µM. For the same compound, the IC50 [13] was over 2.56 µM, the IC50 [14] was over 2.56 µM and the IC50 [15] was over 2.56 µM. For the same compound, the IC50 [16] was over 2.56 µM, the IC50 [17] was over 2.56 µM and the IC50 [18] was over 2.56 µM. It also gave an IC50 [19] of over 2.56 µM, an IC50 [20] of over 2.56 µM and an IC50 [21] of over 2.56 µM. It also gave an IC50 [22] of over 2.56 µM, an IC50 [23] of over 2.56 µM and an IC50 [24] of over 2.56 µM. For the same compound, the IC50 [25] was over 2.56 µM, the IC50 [26] was over 2.56 µM and the IC50 [27] was over 2.56 µM. For the same compound, the IC50 [28] was over 2.56 µM, the IC50 [29] was over 2.56 µM and the IC50 [30] was over 2.56 µM. The IC50 [31] was over 2.56 µM, the IC50 [32] was over 2.56 µM and the IC50 [33] was over 2.56 µM. For the same compound, the IC50 [34] was over 2.56 µM, the IC50 [35] was over 2.56 µM and the IC50 [36] was over 2.56 µM. It also gave an IC50 [37] of 1.33 µM, an IC50 [38] of over 2.56 µM and an IC50 [39] of over 2.56 µM. The IC50 [40] was over 2.56 µM, the IC50 [41] was 1.22 µM and the IC50 [42] was over 2.56 µM. For the same compound, the IC50 [43] was over 2.56 µM, the IC50 [44] was over 2.56 µM and the IC50 [45] was over 2.56 µM. The IC50 [46] was over 2.56 µM, the IC50 [47] was over 2.56 µM and the IC50 [48] was over 2.56 µM. It also gave an IC50 [49] of over 2.56 µM, an IC50 [50] of over 2.56 µM and an IC50 [51] of 1.03 µM.
